We go through two compounds from ChEMBL document CHEMBL3044848, “Antiangiogenic and growth inhibitory effects of synthetic novel 1, 5-diphenyl-1,4 pentadiene-3-one-3-yl-ethanone pyridine curcumin analogues on Ehrlich ascites tumor in vivo” (Med Chem Res, 2008).

The nature of series [1]: Antitumor activity against Mus musculus (mouse) EAT cells xenografted in Mus musculus Swiss albino (mouse)assessed as increase in life span at 100 mg/kg, ip administered on days 7,9 and 11 post tumor-injection measured on day 12 relative to control. Format: functional. Particulars: route intraperitoneal.
Another series concerns Chorioallantoic membrane. Kind of series: Antiangiogenesis activity against fertilized Gallus gallus (chicken) egg chorioallantoic membrane assessed as inhibition of neovascularization at 0.1 mM administered to 11 day old embryo measured on day 13 by microscopic analysis. It is filed as functional, tissue-based.
For series [2], the system named is EAT. Kind of series: Antiangiogeneic activity against Mus musculus (mouse) EAT cells xenografted in Mus musculus Swiss albino (mouse) assessed as decrease in peritoneal microvessel density per high power field at 100 mg/kg, ip administered on days 7,9 and 11 measured on day 12 by H and E staining-based microscopic analysis. Format: functional, organism-based. Further details: dose 100 mg/kg.

Series [3] deals with EAT. Kind of series: Antitumor activity against EAT cells xenografted in Mus musculus (mouse) assessed as condensed nuclei at 100 mg/kg, ip administered on days 7,9 and 11 post tumor-injection measured on day 12 by acridine orange:ethidium bromide staining. Also on record: dose 100 mg/kg. Format: functional, organism-based.
Series [4] deals with EAT. Kind of series: Antitumor activity against EAT cells xenografted in Mus musculus Swiss albino (mouse) assessed as apoptotic bodies at 100 mg/kg, ip administered on days 7,9 and 11 post tumor-injection measured on day 12 by Geimsa staining. Format: functional, organism-based. Also on record: dose 100 mg/kg.
In series [5] the test system is EAT. Kind of series: Antitumor activity against Mus musculus (mouse) EAT cells xenografted in Mus musculus Swiss albino (mouse) assessed as decrease in cell number at 100 mg/kg, ip administered on days 7,9 and 11 post tumor-injection measured on day 12 relative to control. Format: functional, organism-based. Further details: dose 100 mg/kg.
Series [6] has as its system EAT. Kind of series: Antitumor activity against Mus musculus (mouse) EAT cells xenografted in Mus musculus Swiss albino (mouse) assessed as decrease in ascites volume at 100 mg/kg, ip administered on days 7,9 and 11 post tumor-injection measured on day 12 relative to control. It is filed as functional, organism-based. Also on record: dose 100 mg/kg.
Series [7] deals with Mus musculus. Kind of series: Toxicity against Mus musculus Swiss albino (mouse) assessed as mortality at 100 mg/kg, ip. Format: organism-based. Further details: dose 100 mg/kg, route intraperitoneal. Particulars: in vivo.
The test system of series [8] is Mus musculus. Kind of series: Toxicity against Mus musculus Swiss albino (mouse) assessed as weight loss at 100 mg/kg, ip. The settings on record: in vivo. Further details: dose 100 mg/kg, route intraperitoneal. It is filed as organism-based.
A short description of series [9]: Antitumor activity against Mus musculus (mouse) EAT cells xenografted in Mus musculus Swiss albino (mouse) assessed as change in body weight at 100 mg/kg, ip administered on days 7,9 and 11 post tumor-injection measured on day 12 (reference value: 10.44 +/- 0.147). It is filed as functional. Particulars: route intraperitoneal.

SMILES strings stand for the structures. Calls of active or inactive are those of the source. No cut-off for these calls is given here.

Take `O=C(/C=C/c1ccc(OCC(=O)c2cccnc2)cc1)/C=C/c1ccc(OCC(=O)c2cccnc2)cc1`: the Activity is reported as 66.6% in [1], “Non-toxic” in the series with Mus musculus [7], “Non-toxic” with Mus musculus [8] and -4.96 g in [9]. For the same compound, in the series with Chorioallantoic membrane, the inhibition result is “Active”. Also, the result in the series with EAT [2], in the series with EAT [3], in the series on EAT [4], in the series with EAT [5] and with EAT [6] was Active.
Turning to `COc1cc(/C=C/C(=O)/C=C/c2ccc(OCC(=O)c3cccnc3)c(OC)c2)ccc1OCC(=O)c1cccnc1`, the Activity in series [1] is 88.8%; in the series on Mus musculus [7], “Non-toxic”; in the series on Mus musculus [8], “Non-toxic”; in series [9], -5.07 g. The inhibition result with Chorioallantoic membrane was “Active”. The result with EAT [2], with EAT [3], in the series with EAT [4], in the series with EAT [5] and in the series on EAT [6] was Active.
